Test results: US20160122320A1, “USEFUL COMBINATIONS OF MONOBACTAM ANTIBIOTICS WITH BETA-LACTAMASE INHIBITORS” (Basilea Pharmaceutica AG, priority 2005, published 2016)
Counter-ions that a name gives are not always drawn. One block for each molecule: values may come before it.

Key:
Experiment in all cases: MIC, NCCLS broth microdilution
Assay type in all cases: cell-based
[1] = tested on: Acinetobacter sp. J2; settings: for MIC of antibiotic at fixed inhibitor concentration (4 mg/L): Acinetobacter sp. J2, MIC of antibiotic compound 1 with the labelled bridged monobactam of formula II and clavulanate, 4 mg/L each; for MIC of antibiotic / MIC of antibiotic at fixed inhibitor concentration of 4 mg/L: Acinetobacter baumannii J2; for MIC of antibiotic: antibiotic alone, no inhibitor
[2] = tested on: Pseudomonas aeruginosa MK1184; settings: for MIC of antibiotic at fixed inhibitor concentration (4 mg/L): MIC of antibiotic compound 1 with the labelled bridged monobactam of formula II and clavulanate, 4 mg/L each; for MIC of antibiotic: antibiotic alone, no inhibitor
[3] = tested on: Pseudomonas aeruginosa 1973E; settings: for MIC of antibiotic at fixed inhibitor concentration (4 mg/L): MIC of antibiotic compound 1 with the labelled bridged monobactam of formula II and clavulanate, 4 mg/L each; for MIC of antibiotic: antibiotic alone, no inhibitor
In short: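 Compounds were serially diluted per NCCLS M7-A5 (final DMSO no more than 1%) and incubated with bacteria overnight at 30° C. or 37° C. Visible growth was then judged by eye. For combinations, partner compounds sat in every well at a constant 4 μg/mL each.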

[4] = tested on: Enterobacter cloacae P99; settings: for MIC of antibiotic at fixed inhibitor concentration (4 mg/L): MIC of antibiotic compound 1 with the labelled bridged monobactam of formula II and clavulanate, 4 mg/L each; for MIC of antibiotic: antibiotic alone, no inhibitor
[5] = tested on: Klebsiella pneumoniae CF104; settings: for MIC of antibiotic at fixed inhibitor concentration (4 mg/L): MIC of antibiotic compound 1 with the labelled bridged monobactam of formula II and clavulanate, 4 mg/L each; for MIC of antibiotic: antibiotic alone, no inhibitor
[6] = tested on: Serratia marcescens S6; settings: for MIC of antibiotic at fixed inhibitor concentration (4 mg/L): MIC of antibiotic compound 1 with the labelled bridged monobactam of formula II and clavulanate, 4 mg/L each; for MIC of antibiotic: antibiotic alone, no inhibitor
[7] = tested on: Stenotrophomonas malthophilia 1AC736; settings: for MIC of antibiotic at fixed inhibitor concentration (4 mg/L): Stenotrophomonas malthophilia 1AC736, MIC of antibiotic compound 1 with the labelled bridged monobactam of formula II and clavulanate, 4 mg/L each; for MIC of antibiotic / MIC of antibiotic at fixed inhibitor concentration of 4 mg/L: Stenotrophomonas maltophilia 1AC736; for MIC of antibiotic: antibiotic alone, no inhibitor
[8] = with clavulanate (clavulanic acid)

Compound: CC1C(NC(=O)C(=NOCc2cc(=O)c(O)cn2O)c2cccc(N)n2)C(=O)N1S(=O)(=O)O (stereo not drawn) [Compound 20]
MIC of antibiotic [1]: >32 µg/mL
MIC of antibiotic at fixed inhibitor concentration of 4 mg/L ([1]; with 102 and clavulanate): >32 µg/mL
MIC of antibiotic at fixed inhibitor concentration of 4 mg/L ([1]; with 206 and clavulanate): >32 µg/mL
MIC of antibiotic at fixed inhibitor concentration of 4 mg/L ([1]; with 501): <0.06 µg/mL
MIC of antibiotic at fixed inhibitor concentration of 4 mg/L [1, 8]: >32 µg/mL
MIC of antibiotic [2]: >32 µg/mL
MIC of antibiotic at fixed inhibitor concentration of 4 mg/L ([2]; with 102 and clavulanate): 8 µg/mL
MIC of antibiotic at fixed inhibitor concentration of 4 mg/L ([2]; with 206 and clavulanate): >32 µg/mL
MIC of antibiotic at fixed inhibitor concentration of 4 mg/L ([2]; with 501): >32 µg/mL
MIC of antibiotic at fixed inhibitor concentration of 4 mg/L [2, 8]: >32 µg/mL
MIC of antibiotic [3]: 16 µg/mL
MIC of antibiotic at fixed inhibitor concentration of 4 mg/L ([3]; with 102 and clavulanate): 32 µg/mL
MIC of antibiotic at fixed inhibitor concentration of 4 mg/L ([3]; with 206 and clavulanate): 16 µg/mL
MIC of antibiotic at fixed inhibitor concentration of 4 mg/L ([3]; with 501): 16 µg/mL
MIC of antibiotic at fixed inhibitor concentration of 4 mg/L [3, 8]: 16 µg/mL
MIC of antibiotic [4]: >32 µg/mL
MIC of antibiotic at fixed inhibitor concentration of 4 mg/L ([4]; with 102 and clavulanate): 16 µg/mL
MIC of antibiotic at fixed inhibitor concentration of 4 mg/L ([4]; with 206 and clavulanate): 16 µg/mL
MIC of antibiotic at fixed inhibitor concentration of 4 mg/L ([4]; with 501): >32 µg/mL
MIC of antibiotic at fixed inhibitor concentration of 4 mg/L [4, 8]: >32 µg/mL
MIC of antibiotic [5]: >32 µg/mL
MIC of antibiotic at fixed inhibitor concentration of 4 mg/L ([5]; with 102 and clavulanate): 2 µg/mL
MIC of antibiotic at fixed inhibitor concentration of 4 mg/L ([5]; with 206 and clavulanate): 4 µg/mL
MIC of antibiotic at fixed inhibitor concentration of 4 mg/L ([5]; with 501): 16 µg/mL
MIC of antibiotic at fixed inhibitor concentration of 4 mg/L [5, 8]: 32 µg/mL
MIC of antibiotic [6]: 4 µg/mL
MIC of antibiotic at fixed inhibitor concentration of 4 mg/L ([6]; with 102 and clavulanate): 0.5 µg/mL
MIC of antibiotic at fixed inhibitor concentration of 4 mg/L ([6]; with 206 and clavulanate): 0.5 µg/mL
MIC of antibiotic at fixed inhibitor concentration of 4 mg/L ([6]; with 501): 2 µg/mL
MIC of antibiotic at fixed inhibitor concentration of 4 mg/L [6, 8]: 2 µg/mL
MIC of antibiotic [7]: 4 µg/mL
MIC of antibiotic at fixed inhibitor concentration of 4 mg/L ([7]; with 102 and clavulanate): 0.25 µg/mL
MIC of antibiotic at fixed inhibitor concentration of 4 mg/L ([7]; with 206 and clavulanate): 0.5 µg/mL
MIC of antibiotic at fixed inhibitor concentration of 4 mg/L ([7]; with 501): 0.25 µg/mL
MIC of antibiotic at fixed inhibitor concentration of 4 mg/L [7, 8]: 0.25 µg/mL

Compound: CNC(=O)c1ccc[n+](CC(=O)N2CC[C@@H]3[C@H]2C(=O)N3S(=O)(=O)[O-])c1 [Compound 101, (1S,5R)-2-{2-[3-(N-methylcarbamoyl)pyridinium]acetyl}-7-oxo-2,6-diazabicyclo[3.2.0]heptane-6-sulfonate, inner salt]
MIC of antibiotic at fixed inhibitor concentration (4 mg/L) [1]: >32 µg/mL
MIC of antibiotic at fixed inhibitor concentration (4 mg/L) [2]: 8 µg/mL
MIC of antibiotic at fixed inhibitor concentration (4 mg/L) [3]: 4 µg/mL
MIC of antibiotic at fixed inhibitor concentration (4 mg/L) [4]: 32 µg/mL
MIC of antibiotic at fixed inhibitor concentration (4 mg/L) [5]: 2 µg/mL
MIC of antibiotic at fixed inhibitor concentration (4 mg/L) [6]: 0.5 µg/mL
MIC of antibiotic at fixed inhibitor concentration (4 mg/L) [7]: 0.125 µg/mL

Compound: NC(=O)OCC1C(NC(=O)C(=NOCc2cc(=O)c(O)cn2O)c2csc(N)n2)C(=O)N1OS(=O)(=O)O (stereo not drawn) [Compound 25]
MIC of antibiotic [1]: >32 µg/mL
MIC of antibiotic at fixed inhibitor concentration of 4 mg/L ([1]; with 102 and clavulanate): 16 µg/mL
MIC of antibiotic at fixed inhibitor concentration of 4 mg/L ([1]; with 324 and clavulanate): >32 µg/mL
MIC of antibiotic [2]: >32 µg/mL
MIC of antibiotic at fixed inhibitor concentration of 4 mg/L ([2]; with 102 and clavulanate): 4 µg/mL
MIC of antibiotic at fixed inhibitor concentration of 4 mg/L ([2]; with 324 and clavulanate): 8 µg/mL
MIC of antibiotic [3]: 16 µg/mL
MIC of antibiotic at fixed inhibitor concentration of 4 mg/L ([3]; with 102 and clavulanate): 4 µg/mL
MIC of antibiotic at fixed inhibitor concentration of 4 mg/L ([3]; with 324 and clavulanate): 8 µg/mL
MIC of antibiotic [4]: >32 µg/mL
MIC of antibiotic at fixed inhibitor concentration of 4 mg/L ([4]; with 102 and clavulanate): 8 µg/mL
MIC of antibiotic at fixed inhibitor concentration of 4 mg/L ([4]; with 324 and clavulanate): 4 µg/mL
MIC of antibiotic [5]: >32 µg/mL
MIC of antibiotic at fixed inhibitor concentration of 4 mg/L ([5]; with 102 and clavulanate): 0.5 µg/mL
MIC of antibiotic at fixed inhibitor concentration of 4 mg/L ([5]; with 324 and clavulanate): 0.5 µg/mL
MIC of antibiotic [6]: 1 µg/mL
MIC of antibiotic at fixed inhibitor concentration of 4 mg/L ([6]; with 102 and clavulanate): 1 µg/mL
MIC of antibiotic at fixed inhibitor concentration of 4 mg/L ([6]; with 324 and clavulanate): 1 µg/mL
MIC of antibiotic [7]: 4 µg/mL
MIC of antibiotic at fixed inhibitor concentration of 4 mg/L ([7]; with 102 and clavulanate): 1 µg/mL
MIC of antibiotic at fixed inhibitor concentration of 4 mg/L ([7]; with 324 and clavulanate): 1 µg/mL

Compound: COC(=O)c1cc(C)c[n+](CC(=O)N2CC[C@@H]3[C@H]2C(=O)N3S(=O)(=O)[O-])c1 [Compound 114, (1S,5R)-2-{2-[3-(methoxycarbonyl)-5-methylpyridinium]acetyl}-7-oxo-2,6-diazabicyclo[3.2.0]heptane-6-sulfonate, inner salt]
MIC of antibiotic at fixed inhibitor concentration (4 mg/L) [1]: >32 µg/mL
MIC of antibiotic at fixed inhibitor concentration (4 mg/L) [2]: 16 µg/mL
MIC of antibiotic at fixed inhibitor concentration (4 mg/L) [3]: 4 µg/mL
MIC of antibiotic at fixed inhibitor concentration (4 mg/L) [4]: 32 µg/mL
MIC of antibiotic at fixed inhibitor concentration (4 mg/L) [5]: 0.125 µg/mL
MIC of antibiotic at fixed inhibitor concentration (4 mg/L) [6]: 0.25 µg/mL
MIC of antibiotic at fixed inhibitor concentration (4 mg/L) [7]: 0.125 µg/mL

Continued, values first:

MIC of antibiotic at fixed inhibitor concentration (4 mg/L) [1]: >32 µg/mL
MIC of antibiotic at fixed inhibitor concentration (4 mg/L) [2]: >32 µg/mL
MIC of antibiotic at fixed inhibitor concentration (4 mg/L) [3]: 8 µg/mL
MIC of antibiotic at fixed inhibitor concentration (4 mg/L) [4]: 8 µg/mL
MIC of antibiotic at fixed inhibitor concentration (4 mg/L) [5]: 4 µg/mL
MIC of antibiotic at fixed inhibitor concentration (4 mg/L) [6]: 0.5 µg/mL
MIC of antibiotic at fixed inhibitor concentration (4 mg/L) [7]: 0.125 µg/mL
Compound: NC(=O)CNC(=O)c1ccc(NC(=O)N2CC[C@@H]3[C@H]2C(=O)N3S(=O)(=O)[O-])cc1.[Na+] [Compound 312, Sodium(1S,5R)-2-(N-{4-[N-(carbamoylmethyl)carbamoyl]phenyl}carbamoyl)-7-oxo-2,6-diazabicyclo[3.2.0]heptane-6-sulfonate]

MIC of antibiotic at fixed inhibitor concentration (4 mg/L) [1]: 4 µg/mL
MIC of antibiotic at fixed inhibitor concentration (4 mg/L) [2]: >32 µg/mL
MIC of antibiotic at fixed inhibitor concentration (4 mg/L) [3]: 4 µg/mL
MIC of antibiotic at fixed inhibitor concentration (4 mg/L) [4]: 16 µg/mL
MIC of antibiotic at fixed inhibitor concentration (4 mg/L) [5]: 0.5 µg/mL
MIC of antibiotic at fixed inhibitor concentration (4 mg/L) [6]: 0.25 µg/mL
MIC of antibiotic at fixed inhibitor concentration (4 mg/L) [7]: 0.125 µg/mL
Compound: COc1cc(CNC(=O)N2CC[C@@H]3[C@H]2C(=O)N3S(=O)(=O)[O-])on1.[Na+] [Compound 313]

MIC of antibiotic at fixed inhibitor concentration (4 mg/L) [1]: >32 µg/mL
MIC of antibiotic at fixed inhibitor concentration (4 mg/L) [2]: 16 µg/mL
MIC of antibiotic at fixed inhibitor concentration (4 mg/L) [3]: 4 µg/mL
MIC of antibiotic at fixed inhibitor concentration (4 mg/L) [4]: 32 µg/mL
MIC of antibiotic at fixed inhibitor concentration (4 mg/L) [5]: 0.125 µg/mL
MIC of antibiotic at fixed inhibitor concentration (4 mg/L) [6]: 0.25 µg/mL
MIC of antibiotic at fixed inhibitor concentration (4 mg/L) [7]: 0.25 µg/mL
Compound: CCC(=O)c1cc[n+](CC(=O)N2CC[C@@H]3[C@H]2C(=O)N3S(=O)(=O)[O-])cc1 [Compound 117, (1S,5R)-7-oxo-2-[2-(4-propanoylpyridinium)acetyl]-2,6-diazabicyclo[3.2.0]heptane-6-sulfonate, inner salt]

MIC of antibiotic at fixed inhibitor concentration (4 mg/L) [1]: >32 µg/mL
MIC of antibiotic at fixed inhibitor concentration (4 mg/L) [2]: 32 µg/mL
MIC of antibiotic at fixed inhibitor concentration (4 mg/L) [3]: 4 µg/mL
MIC of antibiotic at fixed inhibitor concentration (4 mg/L) [4]: >32 µg/mL
MIC of antibiotic at fixed inhibitor concentration (4 mg/L) [5]: 0.125 µg/mL
MIC of antibiotic at fixed inhibitor concentration (4 mg/L) [6]: 0.25 µg/mL
MIC of antibiotic at fixed inhibitor concentration (4 mg/L) [7]: 0.125 µg/mL
Compound: CCOC(=O)Cc1ccc[n+](CC(=O)N2CC[C@@H]3[C@H]2C(=O)N3S(=O)(=O)[O-])c1 [Compound 119, (1S,5R)-2-(2-{3-[(ethoxycarbonyl)methyl]pyridinium}acetyl)-7-oxo-2,6-diazabicyclo[3.2.0]heptane-6-sulfonate, inner salt]

MIC of antibiotic at fixed inhibitor concentration (4 mg/L) [1]: 4 µg/mL
MIC of antibiotic at fixed inhibitor concentration (4 mg/L) [2]: >32 µg/mL
MIC of antibiotic at fixed inhibitor concentration (4 mg/L) [3]: 4 µg/mL
MIC of antibiotic at fixed inhibitor concentration (4 mg/L) [4]: 8 µg/mL
MIC of antibiotic at fixed inhibitor concentration (4 mg/L) [5]: 0.5 µg/mL
MIC of antibiotic at fixed inhibitor concentration (4 mg/L) [6]: 0.25 µg/mL
MIC of antibiotic at fixed inhibitor concentration (4 mg/L) [7]: 0.125 µg/mL
Compound: NC(=O)c1ccc(NC(=O)N2CC[C@@H]3[C@H]2C(=O)N3S(=O)(=O)[O-])cc1.[Na+] [Compound 311]
